# Data as given in article PMC12481576, “Barbituric Acid Derivatives as Covalent Inhibitors of Leishmania braziliensis Dihydroorotate Dehydrogenase” (Journal of Medicinal Chemistry, 2025).
# Like-named read-outs stand apart in the source and are kept apart here.
# What was measured:
# LbDHODH = LbDHODH (Leishmania braziliensis, UniProt E9AI53); experiment: biochemical; settings: for IC50: LbDHODH
# Description: To assess the ability of compounds 2a–2i to inhibit LbDHODH via covalent bond formation with Cys^131, we initially screened them at a concentration of 100 μM under two conditions: with and without a 4-h preincubation with the enzyme.
# The experiments were performed in a 96-well microplate reader (SpectraMax Plus 384, Molecular Devices, USA), containing the […] of the buffer 60 mM DCIP, 50 mM Tris pH 8.15, 150 mM KCl, 0.1% Triton X-100, 50 μM DHO and 10 μM of LbDHODH at 165 nM. The reaction was monitored every 3 s at 610 nm over a period of 60 s, in triplicate, for the control and each concentration of the inhibitor. All assays were performed without incubation (0h) and with 4-h preincubation of the inhibitor with LbDHODH, using 5% DMSO (v/v) as control. […]. […] The resulting kobs values were plotted as a function of inhibitor concentration, and the data in the initial linear region was fit to determine the slope, which is kinact/KI. All regressions were performed with GraphPad Prism 9.
# HsDHODH = biological target: T1, HsDHODH (Homo sapiens, UniProt Q02127); experiment: Selectivity assay: HsDHODH single-dose inhibition (DCIP reduction); format: biochemical
# T1 construct: made in house
# Description: […]. This finding highlights the potential of barbituric acid derivatives as selective inhibitors of LbDHODH.
# Human DHODH expression and purification were conducted following a protocol previously established in our laboratory. The purification was carried out by affinity chromatography on a Ni-NTA Agarose column (Qiagen[…] Cat. No. 30210). […] The reaction was performed in triplicate, initiated by adding 195 μL of reaction buffer to 5 μL of HsDHODH protein solution for a final concentration of 20 nM enzyme. As a blank, 195 μL of reaction buffer was added to 5 μL of Buffer A. The reaction was monitored at 610 nm every 3 s over 60 s. As a control, 5 μL of enzyme was added to 195 μL of reaction medium without compound. Enzymatic velocity was calculated, and the percentage of relative enzymatic activity was determined relative to the control.
# [1] = tested on: Leishmania braziliensis promastigotes; experiment: Leishmanicidal activity, promastigote growth (SYBR Green, 72 h); format: cell-based, Leishmania (V.) braziliensis (MHOM/BR/1975/M2904); settings: Leishmania braziliensis, L. braziliensis promastigotes, max 200 μM
# Description: The cultures were adjusted to 4 × 10^6 parasites per mL, and 50 μL of each culture was added on a test plate with 384 wells (Corning, #CLS3658), along with the controls and compounds to be tested. Previously diluted compounds in DMSO were added to plates in decreasing concentrations, with a maximum concentration of 200 μM. Parasites were exposed to a final concentration of DMSO in various dilutes (final = 0.5%), and the culture medium was used as the control for the experiment. […] After adding the lysis buffer, the plates were incubated in the dark for 2 h with gentle shaking. The readings were done using a SpectraMax M3 reader (excitation at 485 nm and emission at 535 nm).
# [2] = Cell viability / cytotoxicity assay (PrestoBlue, 72 h); format: cell-based; settings: human; THP-1 cell line, 72 h, max 200 μM; read-out: CC50
# Description: (§1) THP-1 cells (American Type Cell Collection, #TIB-202) were acquired in 2019 and stored frozen in liquid nitrogen. The cells were then maintained in RPMI 1640 (Thermo Fisher Scientific, #S31800–022) at 37 °C in a 5% CO2 atmosphere and routinely tested for Mycoplasma contamination by PCR using the primers 5′-[…] and 5′-[…]. To test the toxicity of compounds, 5000 cells were added to 96-well plates with a final volume of 80 μL centrifuged at 400g for 2 min and incubated with 150 ng/mL of phorbol myristate acetate (Merck, #P8139) for 48 h. The medium was replaced, and after 24 h, the compounds were added and tested at decreasing concentrations starting from 200 μM (10 μL/well). After 72 h of incubation, 10 μL of PrestoBlue Cell Viability Reagent (Thermo Fisher Scientific, #A13262) was added per well. After adding the reagent, the cells were incubated for 2 h at 37 °C in a 5% CO2 atmosphere, and fluorescence readings were performed using the SpectraMax M3 reader (excitation at 560 nm and emission at 590 nm).
# THP-1 cells = experiment: as above; format: cell-based; settings: THP-1 cell line, 72 h, max 200 μM
# Description: as §1
# [3] = Kinetic solubility assay in PBS pH 7.4; format: physicochemical; settings: phosphate buffered saline, aqueous buffer, kinetic from dmso stock; PBS pH 7.4, 200 μM test conc, 1% DMSO, 2 h at 25 °C
# Description: The plate was incubated for 2 h at 25 °C. The precipitates on the incubation plate were removed by filtration and the filtrates were quantified by LC-MS/MS. Calibration curves were prepared for each compound by using 5–6 points. Samples were analyzed by UV–vis.
# [4] = 0 h, pH 8.15, read-out: LbDHODH Activity±SD (%)
# [5] = 4 h, pH 8.15, read-out: LbDHODH Activity±SD (%)
# [6] = read-out: Single dose (0h) % activity
# [7] = read-out: Single dose (4h) % activity
# LbDHODH, sequence (E9AI53 entry or part of it): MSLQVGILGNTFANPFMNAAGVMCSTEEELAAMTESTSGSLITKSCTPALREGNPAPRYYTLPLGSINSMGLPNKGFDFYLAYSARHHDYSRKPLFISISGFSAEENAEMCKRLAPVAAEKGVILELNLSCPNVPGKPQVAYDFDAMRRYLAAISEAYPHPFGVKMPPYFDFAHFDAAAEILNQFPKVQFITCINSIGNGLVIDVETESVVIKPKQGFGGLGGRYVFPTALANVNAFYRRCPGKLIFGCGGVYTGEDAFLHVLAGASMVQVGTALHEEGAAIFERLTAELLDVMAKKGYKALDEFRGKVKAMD
# T1 sequence (Q02127 whole entry): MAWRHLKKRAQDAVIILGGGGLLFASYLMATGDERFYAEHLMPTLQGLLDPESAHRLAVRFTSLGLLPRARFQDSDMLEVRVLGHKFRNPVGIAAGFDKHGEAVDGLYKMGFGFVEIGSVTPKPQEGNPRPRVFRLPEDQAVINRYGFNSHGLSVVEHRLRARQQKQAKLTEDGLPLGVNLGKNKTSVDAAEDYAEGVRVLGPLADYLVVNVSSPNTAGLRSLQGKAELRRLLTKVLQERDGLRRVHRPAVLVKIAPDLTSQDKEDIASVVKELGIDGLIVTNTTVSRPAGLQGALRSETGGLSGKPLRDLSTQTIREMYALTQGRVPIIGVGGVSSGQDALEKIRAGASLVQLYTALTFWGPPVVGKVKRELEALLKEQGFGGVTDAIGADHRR
smiles,measurement,setting,value
"O=C1NC(=O)C(=Cc2ccc(-c3ccccc3)cc2)C(=O)N1 [2f, 5-([1,1′-Biphenyl]-4-ylmethylene)pyrimidine-2,4,6(1H,3H,5H)-trione]",activity at 0.024414 µM,LbDHODH; [4],97 ± 2%
same,activity at 0.048828 µM,LbDHODH; [4],93 ± 2%
same,activity at 0.0976562 µM,LbDHODH; [4],98 ± 2%
same,activity at 0.195312 µM,LbDHODH; [4],97 ± 2%
same,activity at 0.390625 µM,LbDHODH; [4],91 ± 2%
same,activity at 0.78125 µM,LbDHODH; [4],94 ± 2%
same,activity at 1.5625 µM,LbDHODH; [4],100 ± 2%
same,activity at 3.125 µM,LbDHODH; [4],94 ± 2%
same,activity at 6.25 µM,LbDHODH; [4],96 ± 2%
same,activity at 12.5 µM,LbDHODH; [4],86 ± 2%
same,activity at 25 µM,LbDHODH; [4],83 ± 2%
same,activity at 50 µM,LbDHODH; [4],71 ± 2%
same,activity at 100 µM,LbDHODH; [4],62 ± 2%
same,activity at 200 µM,LbDHODH; [4],43 ± 1%
same,activity at 0.024414 µM,LbDHODH; [5],103 ± 3%
same,activity at 0.048828 µM,LbDHODH; [5],104 ± 3%
same,activity at 0.0976562 µM,LbDHODH; [5],104 ± 3%
same,activity at 0.195312 µM,LbDHODH; [5],95.5 ± 2%
same,activity at 0.390625 µM,LbDHODH; [5],95.9 ± 2%
same,activity at 0.78125 µM,LbDHODH; [5],85.6 ± 2%
same,activity at 1.5625 µM,LbDHODH; [5],83.3 ± 2%
same,activity at 3.125 µM,LbDHODH; [5],73.6 ± 2%
same,activity at 6.25 µM,LbDHODH; [5],53 ± 1%
same,activity at 12.5 µM,LbDHODH; [5],41 ± 1%
same,activity at 25 µM,LbDHODH; [5],25.2 ± 0.6%
same,activity at 50 µM,LbDHODH; [5],10 ± 0.2%
same,activity at 100 µM,LbDHODH; [5],3.8 ± 0.1%
same,activity at 200 µM,LbDHODH; [5],0.95 ± 0.02%
same,IC50,"LbDHODH; IC50 0 h, without preincubation",160 ± 10 µM
same,IC50,"LbDHODH; IC50 4 h, 4-h preincubation",7.7 ± 0.3 µM
same,activity at 100 µM,LbDHODH; [6],62 ± 2%
same,activity at 100 µM,LbDHODH; [7],3.8 ± 0.1%
same,inhibition at 100 µM,LbDHODH; read-out: enzyme inhibition,96.2%
same,activity at 100 µM,HsDHODH; [6],103 ± 12%
same,activity at 100 µM,HsDHODH; [7],78 ± 8%
same,EC50,[1],19 ± 14 µM
same,CC50 at 72 h,[2],12 ± 3 µM
same,CC50,THP-1 cells,strong cytotoxicity
"O=C(O)Cc1ccccc1Nc1c(Cl)cccc1Cl [Diclofenac Sodium, reference compound]",solubility kinetic at 2 h,[3],200 µM
